The record followed here is patent publication US20260098061A1, “EPHA2-BINDING PENDING PEPTIDE AND COMPOSITION COMPRISING SAME” (PeptiDream Inc., priority 2022, published 2026).

The Kd is the concentration at which binding is half-saturated.

Each structure is given as a SMILES string. Numbered stars: 1 amine (or outer) side, 2 acyl side, 3 side chain; on linkers, the order of the positions; unused ones are H or OH. Bridge positions count the residues as written; N and C are the ends. Square brackets hold non-standard residues; d marks the D form. Side chains are listed from the residue outwards. Peptide text beside a SMILES is read from it. * marks the point of attachment. NH(1-deoxy-D-glucityl) = OC[C@@H](O)[C@@H](O)[C@H](O)[C@@H](O)CN*; Trp(1-Me,7-Cl) = Cn1cc(C[C@H](N)C(=O)O)c2cccc(Cl)c21; dPhe(3-CONH2) = NC(=O)c1cccc(C[C@@H](N)C(=O)O)c1; Piperazinyl(4-CH2COOH) = O=C(O)CN1CCN(*)CC1; Trp(1-Me) = Cn1cc(C[C@H](N)C(=O)O)c2ccccc21; NMe3Pal = CN[C@@H](Cc1cccnc1)C(=O)O; NMeF = CN[C@@H](Cc1ccccc1)C(=O)O; hCit = NC(=O)NCCCC[C@H](N)C(=O)O; Gly(cBu) = N[C@H](C(=O)O)C1CCC1; NMeE = CN[C@@H](CCC(=O)O)C(=O)O; Aad = N[C@@H](CCCC(=O)O)C(=O)O; Cit = NC(=O)NCCC[C@H](N)C(=O)O; NMeN = CN[C@@H](CC(N)=O)C(=O)O; dAhp(2) = CCCCC[C@@H](N)C(=O)O; Chg = N[C@H](C(=O)O)C1CCCCC1; CO = O=C([*:1])[*:2]; βAla = NCCC(=O)O A value given as a limit tells only on which side of the number the result lay.

The target in the test is T1, Recombinant Human EphA2 Fc Protein (Homo sapiens, UniProt P29317).
T1 construct: purchased Elabscience
The experiment in a line: SPR interaction analysis (Biacore T200), kinetics of peptides against EphA2. The format is binding. The note with it: Recombinant Human EphA2 Fc Protein captured by Human Antibody Capture kit; single-cycle kinetics; 25° C.; HBS-P+ buffer with 1% DMSO. The method in brief: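 On a Biacore T200 at 25° C, Fc-tagged human EphA2 was captured via anti-human antibody; peptides ran as five serial dilutions in HBS-P+ pH 7.4 with 1% DMSO by single-cycle kinetics. Baseline-subtracted data fitted for ka and kd, from which KD was derived.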
For orientation: In SPR one partner is held on a chip, and binding of the other changes the refractive index at the surface.
With `C[C@H]1NC(=O)CSC[C@@H](C(N)=O)NC(=O)[C@H](CC(N)=O)NC(=O)[C@H]([C@@H](C)O)NC(=O)[C@H](Cc2cn(C)c3ccccc23)NC(=O)[C@H](CCCCNC(=O)N2CCN(CC(=O)O)CC2)NC(=O)[C@H](Cc2cn(C)c3ccccc23)NC(=O)[C@H](Cc2ccccc2)N(C)C(=O)[C@H](CCCC(N)=O)NC(=O)[C@H](C2CCC2)NC(=O)[C@H](CC(N)=O)NC(=O)[C@H](Cc2cccnc2)N(C)C1=O` [PDC_EphA2-00010004, da-Me3Py-N-Cbg-Hgn-MeF-W1Me-KCOpipzaa-W1Me-T-N-C-NH2] ({CH2CO}-[dA][NMe3Pal]N[Gly(cBu)][Aad](NH2)[NMeF][Trp(1-Me)]K([CO-Piperazinyl(4-CH2COOH)])[Trp(1-Me)]TNC-NH2; thioether N-12), the equilibrium dissociation constant (Kd) was under 1 nM. On to `C[C@H]1NC(=O)CSC[C@@H](C(N)=O)NC(=O)[C@H](CCCC(N)=O)NC(=O)[C@H]([C@@H](C)O)NC(=O)[C@H](Cc2cn(C)c3ccccc23)NC(=O)[C@H](CCC(=O)NC[C@H](O)[C@@H](O)[C@H](O)[C@H](O)CO)NC(=O)[C@H](Cc2cn(C)c3ccccc23)NC(=O)[C@H](CC(N)=O)N(C)C(=O)[C@H](CCCC(N)=O)NC(=O)[C@H](C2CCC2)NC(=O)[C@H](CC(N)=O)NC(=O)[C@H](Cc2ccccc2)N(C)C1=O` [PDC_EphA2-00013703, da-MeF-N-Cbg-Hgn-MEN-W1Me-Qglucamine-W1Me-T-Hgn-C-NH2] ({CH2CO}-[dA][NMeF]N[Gly(cBu)][Aad](NH2)[NMeN][Trp(1-Me)]E(NH(1-deoxy-D-glucityl))[Trp(1-Me)]T[Aad](NH2)C-NH2; thioether N-12), for which the Kd was under 1 nM.

`CC(=O)NCCCC[C@@H](NC(=O)CCNC(=O)[C@@H]1CSCC(=O)N[C@H](C)C(=O)N(C)[C@@H](Cc2cccnc2)C(=O)N[C@@H](CC(N)=O)C(=O)N[C@@H](CC(C)C)C(=O)N[C@@H](CCCC(N)=O)C(=O)N(C)[C@@H](CCC(=O)O)C(=O)N[C@@H](Cc2cn(C)c3ccccc23)C(=O)N[C@@H](CCCCNC(=O)N2CCN(CC(=O)O)CC2)C(=O)N[C@@H](Cc2cn(C)c3ccccc23)C(=O)N[C@@H]([C@@H](C)O)C(=O)N[C@@H](CCCC(N)=O)C(=O)N1)C(N)=O` [PDC_EphA2-00007196, da-Me3Py-N-L-Hgn-MeE-W1Me-KCOpipzaa-W1Me-T-Hgn-C-bA-dkAc-NH2] ({CH2CO}-[dA][NMe3Pal]NL[Aad](NH2)[NMeE][Trp(1-Me)]K([CO-Piperazinyl(4-CH2COOH)])[Trp(1-Me)]T[Aad](NH2)C[βAla][dK](Ac)-NH2; thioether N-12): the Kd is under 1 nM. As for `CC(=O)NCCCC[C@@H](NC(=O)[C@@H]1CSCC(=O)N[C@@H](Cc2ccccc2)C(=O)N[C@@H](Cc2c[nH]cn2)C(=O)N[C@@H](CC(N)=O)C(=O)N[C@@H](CC(C)C)C(=O)N[C@@H](CO)C(=O)N(C)[C@@H](Cc2ccccc2)C(=O)N[C@@H](Cc2cn(C)c3ccccc23)C(=O)N[C@@H](CCCCNC(N)=O)C(=O)N[C@@H](Cc2cn(C)c3ccccc23)C(=O)N1)C(N)=O` [PDC_EphA2-00022608, F-H-N-L-S-MeF-W1Me-Hcit-W1Me-C-dkAc-NH2] ({CH2CO}-FHNLS[NMeF][Trp(1-Me)][hCit][Trp(1-Me)]C[dK](Ac)-NH2; thioether N-10), the figure is 10 to 100 nM. With `CC(=O)NCCCC[C@@H](NC(=O)CCNC(=O)[C@@H]1CSCC(=O)N[C@H](C)C(=O)N(C)[C@@H](Cc2cccnc2)C(=O)N[C@@H](CC(N)=O)C(=O)N[C@@H](CC(C)C)C(=O)N[C@@H](CCCCNC(=O)N2CCN(CC(=O)O)CC2)C(=O)N(C)[C@@H](CCC(=O)O)C(=O)N[C@@H](Cc2cn(C)c3ccccc23)C(=O)N[C@@H](CCCCNC(=O)N2CCN(CC(=O)O)CC2)C(=O)N[C@@H](Cc2cn(C)c3ccccc23)C(=O)N[C@@H]([C@@H](C)O)C(=O)N[C@@H](CCCC(N)=O)C(=O)N1)C(N)=O` [PDC_EphA2-00008095, da-Me3Py-N-L-KCOpipzaa-MeE-W1Me-KCOpipzaa-W1Me-T-Hgn-C-bA-dkAc-NH2] ({CH2CO}-[dA][NMe3Pal]NLK([CO-Piperazinyl(4-CH2COOH)])[NMeE][Trp(1-Me)]K([CO-Piperazinyl(4-CH2COOH)])[Trp(1-Me)]T[Aad](NH2)C[βAla][dK](Ac)-NH2; thioether N-12) the figure was under 1 nM; with `CC(C)C[C@@H]1NC(=O)[C@H](CC(N)=O)NC(=O)[C@H](Cc2ccccc2)N(C)C(=O)[C@@H](Cc2cccc(C(N)=O)c2)NC(=O)CSC[C@@H](C(N)=O)NC(=O)[C@H](CC(N)=O)NC(=O)[C@H]([C@@H](C)O)NC(=O)[C@H](Cc2cn(C)c3ccccc23)NC(=O)[C@H](CCCNC(N)=O)NC(=O)[C@H](Cc2cn(C)c3c(Cl)cccc23)NC(=O)[C@H](CCC(=O)O)N(C)C(=O)[C@H](CC(N)=O)NC1=O` [PDC_EphA2-00026426, df3CON-Me3Py-N-L-N-MeN-W1Me7Cl-Cit-W1Me-T-N-C-NH2] ({CH2CO}-[dPhe(3-CONH2)][NMeF]NLN[NMeE][Trp(1-Me,7-Cl)][Cit][Trp(1-Me)]TNC-NH2; thioether N-12), under 1 nM.

On to `CC(C)C[C@@H]1NC(=O)[C@H](CC(N)=O)NC(=O)[C@H](Cc2cccnc2)N(C)C(=O)[C@@H](C)NC(=O)CSC[C@@H](C(N)=O)NC(=O)[C@H](CCCC(N)=O)NC(=O)[C@H]([C@@H](C)O)NC(=O)[C@H](Cc2cn(C)c3ccccc23)NC(=O)[C@H](CCCCNC(=O)N2CCN(CC(=O)O)CC2)NC(=O)[C@H](Cc2cn(C)c3ccccc23)NC(=O)[C@H](CCC(=O)O)N(C)C(=O)[C@H](CC(=O)N(C)C)NC1=O` [PDC_EphA2-00018532, da-Me3Py-N-L-Ndm-MeE-W1Me-KCOpipzaa-W1Me-T-Hgn-C-NH2] ({CH2CO}-[dA][NMe3Pal]NLD(NMe2)[NMeE][Trp(1-Me)]K([CO-Piperazinyl(4-CH2COOH)])[Trp(1-Me)]T[Aad](NH2)C-NH2; thioether N-12), for which the Kd was under 1 nM. Consider `CCCCC[C@H]1NC(=O)CSC[C@@H](C(N)=O)NC(=O)[C@H](CCCC(N)=O)NC(=O)[C@H]([C@@H](C)O)NC(=O)[C@H](Cc2cn(C)c3ccccc23)NC(=O)[C@H](CCCCNC(=O)N2CCN(CC(=O)O)CC2)NC(=O)[C@H](Cc2cn(C)c3ccccc23)NC(=O)[C@H](CCC(=O)O)N(C)C(=O)[C@H](CCCC(N)=O)NC(=O)[C@H](CC(C)C)NC(=O)[C@H](CC(N)=O)NC(=O)[C@H](Cc2cccnc2)N(C)C1=O` [PDC_EphA2-00018530, dahp-Me3Py-N-L-Hgn-MeE-W1Me-KCOpipzaa-W1Me-T-Hgn-C-NH2] ({CH2CO}-[dAhp(2)][NMe3Pal]NL[Aad](NH2)[NMeE][Trp(1-Me)]K([CO-Piperazinyl(4-CH2COOH)])[Trp(1-Me)]T[Aad](NH2)C-NH2; thioether N-12), for which the dissociation constant (Kd) was under 1 nM. With `C[C@@H](O)[C@@H]1NC(=O)[C@H](Cc2cn(C)c3ccccc23)NC(=O)[C@H](CCC(=O)NC[C@H](O)[C@@H](O)[C@H](O)[C@H](O)CO)NC(=O)[C@H](Cc2cn(C)c3c(Cl)cccc23)NC(=O)[C@H](CCC(=O)O)N(C)C(=O)[C@H](CCCC(N)=O)NC(=O)[C@H](C2CCC2)NC(=O)[C@H](CC(N)=O)NC(=O)[C@H](Cc2cccnc2)N(C)C(=O)[C@@H](Cc2cccc(C(N)=O)c2)NC(=O)CSC[C@@H](C(N)=O)NC(=O)[C@H](CCCC(N)=O)NC1=O` [PDC_EphA2-00019439, df3CON-Me3Py-N-Cbg-Hgn-MeE-W1Me7Cl-Qglucamine-W1Me-T-Hgn-C-NH2] ({CH2CO}-[dPhe(3-CONH2)][NMe3Pal]N[Gly(cBu)][Aad](NH2)[NMeE][Trp(1-Me,7-Cl)]E(NH(1-deoxy-D-glucityl))[Trp(1-Me)]T[Aad](NH2)C-NH2; thioether N-12) the figure was under 1 nM; with `CCCCC[C@H]1NC(=O)CSC[C@@H](C(N)=O)NC(=O)[C@H](CCCC(N)=O)NC(=O)[C@H]([C@@H](C)O)NC(=O)[C@H](Cc2cn(C)c3ccccc23)NC(=O)[C@H](CCCCNC(=O)N2CCN(CC(=O)O)CC2)NC(=O)[C@H](Cc2cn(C)c3ccccc23)NC(=O)[C@H](Cc2ccccc2)N(C)C(=O)[C@H](CCCC(=O)O)NC(=O)[C@H](CC(C)C)NC(=O)[C@H](CC(N)=O)NC(=O)[C@H](Cc2cccnc2)N(C)C1=O` [PDC_EphA2-00018526, dahp-Me3Py-N-L-Hgl-MeF-W1Me-KCOpipzaa-W1Me-T-Hgn-C-NH2] ({CH2CO}-[dAhp(2)][NMe3Pal]NL[Aad][NMeF][Trp(1-Me)]K([CO-Piperazinyl(4-CH2COOH)])[Trp(1-Me)]T[Aad](NH2)C-NH2; thioether N-12), under 1 nM; with `CCCCC[C@H]1NC(=O)CSC[C@@H](C(N)=O)NC(=O)[C@H](CCCC(N)=O)NC(=O)[C@H]([C@@H](C)O)NC(=O)[C@H](Cc2cn(C)c3ccccc23)NC(=O)[C@H](CCCCNC(=O)N2CCN(CC(=O)O)CC2)NC(=O)[C@H](Cc2cn(C)c3ccccc23)NC(=O)[C@H](Cc2ccccc2)N(C)C(=O)[C@H](CCCC(N)=O)NC(=O)[C@H](C2CCCCC2)NC(=O)[C@H](CC(N)=O)NC(=O)[C@H](Cc2cccnc2)N(C)C1=O` [PDC_EphA2-00018535, dahp-Me3Py-N-Chg-Hgn-MeF-W1Me-KCOpipzaa-W1Me-T-Hgn-C-NH2] ({CH2CO}-[dAhp(2)][NMe3Pal]N[Chg][Aad](NH2)[NMeF][Trp(1-Me)]K([CO-Piperazinyl(4-CH2COOH)])[Trp(1-Me)]T[Aad](NH2)C-NH2; thioether N-12), under 1 nM. In the case of `C[C@H]1NC(=O)CSC[C@@H](C(N)=O)NC(=O)[C@H](CCCC(N)=O)NC(=O)[C@H]([C@@H](C)O)NC(=O)[C@H](Cc2cn(C)c3ccccc23)NC(=O)[C@H](CCCCNC(=O)N2CCN(CC(=O)O)CC2)NC(=O)[C@H](Cc2cn(C)c3ccccc23)NC(=O)[C@H](CC(N)=O)N(C)C(=O)[C@H](CCCC(N)=O)NC(=O)[C@H](C2CCC2)NC(=O)[C@H](CC(N)=O)NC(=O)[C@H](Cc2cccnc2)N(C)C1=O` [PDC_EphA2-00010001, da-Me3Py-N-Cbg-Hgn-MeN-W1Me-KCOpipzaa-W1Me-T-Hgn-C-NH2] ({CH2CO}-[dA][NMe3Pal]N[Gly(cBu)][Aad](NH2)[NMeN][Trp(1-Me)]K([CO-Piperazinyl(4-CH2COOH)])[Trp(1-Me)]T[Aad](NH2)C-NH2; thioether N-12), the dissociation constant Kd was under 1 nM.
